Patent publication US9790188B2, “Benzimidazole derivatives and uses thereof” (Whitehead Institute for Biomedical Research, priority 2013, dated 2017)
“Also recorded” adds a separate entry of the source.

Assays:
α-syn foci = assay: α-syn-GFP localization / foci microscopy in yeast; format: cell-based; settings: α-syn-expressing yeast
Experimental: Logarithmic growing raffinose cultures were induced with galactose for five hours in the presence or absence of the indication concentration of ABI. Cells were centrifuged, media discarded, and then fixed with 4% paraformaldehyde in 1×PBS for 1 hr. The fixed culture was centrifuged, and the pellet resuspended in 0.4% paraformaldehyde in 1×PBS and kept at 4° C. Single plain images were taken at 100× magnification with a Nikon Eclipse Ti microscope.

α-syn [1] = assay: Yeast growth rescue from α-syn toxicity (dose-response); format: cell-based
Experimental: For galactose-induction experiments, overnight cultures were grown in CSM/2% glucose to saturation and diluted 1:20 into CSM/2% raffinose for ˜2 generations. Cultures were then diluted into CSM/2% galactose at an optimum OD600 for the experiment (see ‘Growth assays’).
Source plates were assembled in 96 well plates using multichannel pipettes to dilute rows in 1.6-fold serial dilutions of CSMGal. […] For α-syn, the final starting OD600 was 0.02. Drug concentration ranges varied depending on efficacy, growth inhibition, and solubility in media. A Tecan EvoFreedom liquid handling robot was then used to transfer culture from 96 to 384 well format with each well being represented four times. Final well volume was 35 μL. Plates were then incubated in humidified containers at 30° C. for either 24 or 40 hours. Plates were then read with a Tecan Saphire plate reader at OD600.
Raw OD600 values were transformed to “Relative Growth” in WT cells or “% Maximum Rescue” in α-syn experiments. In WT cells, the well background was subtracted and all values were then normalized to 100% for the untreated condition. In α-syn rescue experiments, the well background was subtracted and the maximum rescue in the particular experiment was normalized to 100%.

htt72Q = assay: Yeast growth rescue, htt72Q proteinopathy model; format: cell-based
Experimental: (§1) (A) Structure of lead compound ABI. (B) Dose-response curves showing the relative rescue of ABI (log2, μM) in five yeast proteinopathy models. Rescue is relative to a positive control compound as determined by growth (OD600). (C) Localization of α-syn-GFP in strains with increasing toxicity: NoTox, InTox, HiTox and HiTox treated with 10 μM ABI. […] (E) (Left panel) Western blot of α-syn-GFP in NoTox, InTox, and HiTox strains with anti-α-syn antibody. (Right panel) Quantitation of western blot (α-syn relative to total protein quantitated from a Coomassie gel and normalized to 100% for HiTo). **: P<0.01; and ***: P<0.001, according to one-way ANOVA and a Tukey's test.
(§2) Yeast strains expressing toxic proteins have been described previously (6, 9, 33, 34) (Table 1). All strains have either single or multiple inserts for galactose-inducible expression. In addition, all stains have either deletions of the Δpdr1::KanMX and Δpdr3::KanMX or Δpdr5::KanMX to reduce efflux of compounds and required compound dosing. Yeast were cultured in complete synthetic media (CSM) and an appropriate dropout (minus HIS or URA) to maintain plasmids if required. […]
(§3) Starting cultures for all dose-response assays were established as described above. […] Plates were then read with a Tecan Saphire plate reader at OD600.

FUS/TLS = assay: Yeast growth rescue, FUS/TLS proteinopathy model; format: cell-based
Experimental: as §1, §2, §3

aSyn^A53T iPS neurons = assay: Nitrosative stress (NO sensor FL2) in patient iPS neurons; settings: human cortical neurons from iPSCs of a patient carrying α-syn mutations
Source text: Nitrosative stress was monitored by protein nitration levels using the 3-NT antibody. […] All data represented as mean±SEM (*: p<0.05; **: p<0.01, two tail t-test compared to control condition).

Bap2 = assay: Western blot of proteinA-tagged Bap2; format: cell-based, yeast; settings: Rsp5-dependent
α-syn [2] = assay: Western blot of α-syn levels in yeast; format: cell-based; settings: α-syn-expressing yeast
Experimental: Protein analysis of α-syn-GFP was performed in NoTox, InTox, and HiTox strains with ABI1 treatment at indicated concentrations. Log phase CSM/2% raffinose cultures were induced with 2% galactose for 5 hours with DMSO or ABI1. Cultures were normalized to cell density and cell pellets prepared for SDS-PAGE. Cell pellets were boiled in SDS-loading dye for 15′, centrifuged, and resolved by 4-12% SDS-PAGE. […] From the same gel, total protein was detected by coomassie staining. Both blots and coomassie-stained gels were scanned using the Li-Cor Odyssey imaging system and quantitated. Values were expressed as α-syn normalized to total protein (FIG. 1E). Significance was determined using a one-way ANOVA with Tukey's test of significance.

Cpy = assay: CPY western blot, ER-to-Golgi trafficking in α-syn yeast; format: cell-based; settings: α-syn-expressing yeast
Experimental: CPY western blots were performed using culture conditions as described above. An anti-Cpy antibody (Invitrogen, A6428) was used at 1:5,000. Post-ER:ER ratios were quantitated using an IRDye800 secondary antibody (Li-Cor Odyssey, Rockland Immunochemicals) and scanned with the Li-Cor Odyssey imaging system. Significance was determined using a one-way ANOVA and Tukey's test of significance.

SMILES: Cc1cccc(-n2cnc3cc(C(=O)NCc4ccccc4Cl)ccc32)c1 [ABI, N-(2-chlorobenzyl)-1-(m-tolyl)-1H-benzo[d]imidazole-5-carboxamide]
- accumulation of cytoplasmic α-syn foci / inclusions (α-syn foci): prevented the accumulation of cytoplasmic α-syn foci
- growth-inhibitory concentration relative to EC50 in rescuing α-syn toxicity (α-syn [1]): about four-fold
- potency and efficacy against α-syn (rescue of growth) (α-syn [1]; compared with TDP-43 model): much greater potency and efficacy
- efficacy against htt72Q (htt72Q): not, however, effective
- efficacy against FUS/TLS (FUS/TLS): not, however, effective
- nitrosative stress (aSyn^A53T iPS neurons): reduced nitrosative stress
- Bap2 levels / degradation (Bap2): promotes Bap2 degradation
- melting point: 129 to 131 °C
- α-syn levels (α-syn [2]): did not reverse α-syn phenotypes by reducing α-syn levels; also recorded: did not detect changes
- ER-to-Golgi trafficking (Cpy) / forward protein trafficking through the ER (Cpy): directly ameliorated an ER-Golgi trafficking block
